# Reference: patent US9447086B2, “6-amino acid heteroaryldihydropyrimidines for the treatment and prophylaxis of hepatitis B virus infection” (priority 2012, dated 2016)
# Tests used:
# [1] = Lyophilisation solubility assay (Lysa); assay type: physicochemical; settings: phosphate buffer, pH 6.5, aqueous buffer, thermodynamic from solid
# Experimental: The aqueous solubility is an important physico-chemical property that plays a significant role in various physical and biological processes. It is desirable to have good solubility which enables good permeability and gastric and intestinal absorption, linear dose proportionality, less PK variability, and easy formulation for PD/PK studies. […] Lyophilisation solubility assay (Lysa) is a well adopted high throughput assay to measure compound solubility in industry.
# Samples are prepared in duplicate from 10 mM DMSO stock solutions. After evaporation of DMSO with a centrifugal vacuum evaporator, the residue is solved in 0.05 M phosphate buffer (pH 6.5), stirred for one hour and shaken for two hours. After one night, the solutions is filtered using a microtiter filter plate and the filtrate and its 1/10 dilution are then analyzed by direct UV measurement or by HPLC-UV. […] The results are in μg/mL.
# [2] = Metabolic stability study in human microsome; assay type: in vitro ADME
# Experimental: Human Microsomes were preincubated with test compound for 10 min at 37° C. in 100 mM phosphate buffer, pH 7.4. The reactions were initiated by adding NADPH or NADPH regenerating system to give a final incubation volume of 400 μL. For NADPH system, the final incubations contained 1 μM test compound, 0.5 mg/mL liver microsomal protein, 1 mM NADPH in 100 mM phosphate buffer, pH 7.4. For the NADPH regenerating system, the final incubations contained 1 μM test compound, 0.5 mg/mL liver microsomal protein, 3 mM glucose 6-phosphate, 1 mM NADP, 3 mM MgCl2 and 0.05 mg/mL glucose 6-phosphate dehydrogenase in 100 mM phosphate buffer, pH 7.4. After incubation times of 0, 3, 6, 9, 15 and 30 minutes at 37° C., 50 μL samples was removed and transferred to 150 μL methanol solution which was maintained at 4° C. containing 2 μM tolbutamide (internal standard) to terminating the reaction. Following precipitation and centrifugation, the amount of compound remaining in the samples were determined by LC-MS/MS. Controls of no NADPH or NADPH regenerating system at zero and 30 min were also prepared and analyzed.
solubility thermodynamic [1] [µg/mL],Human Hepatic Clearance [2] [mL/min/kg],SMILES
> 596,6.8,"COC(=O)C1=C(CN2CSCCC2C(=O)O)NC(c2nccs2)=N[C@H]1c1ccc(F)cc1Cl (stereo partly drawn) [Example 86, 3-[[(4R)-4-(2-Chloro-4-fluoro-phenyl)-5-methoxycarbonyl-2-thiazol-2-yl-1,4-dihydropyrimidin-6-yl]methyl]-1,3-thiazinane-4-carboxylic acid]"
> 525,6.13,"COC(=O)C1=C(CN2CC(F)(F)C(C)(C)[C@H]2C(=O)O)NC(c2nccs2)=N[C@H]1c1ccc(F)cc1Cl [Example 89, (R)-6-((S)-2-Carboxy-4,4-difluoro-3,3-dimethyl-pyrrolidin-1-ylmethyl)-4-(2-chloro-4-fluoro-phenyl)-2-thiazol-2-yl-1,4-dihydro-pyrimidine-5-carboxylic acid methyl ester]"
> 630,1.72,"COC(=O)C1=C(CN2CC(F)(F)C[C@H]2C(=O)O)NC(c2nccs2)=N[C@H]1c1ccc(Cl)cc1F [Example 76, (R)-6-((S)-2-Carboxy-4,4-difluoro-pyrrolidin-1-ylmethyl)-4-(4-chloro-2-fluoro-phenyl)-2-thiazol-2-yl-1,4-dihydro-pyrimidine-5-carboxylic acid methyl ester]"
630,4.82,"COC(=O)C1=C(CN2CC(F)(F)C[C@H]2C(=O)O)NC(c2ncccc2F)=N[C@H]1c1ccc(F)cc1Cl [Example 22, (R)-6-((S)-2-Carboxy-4,4-difluoro-pyrrolidin-1-ylmethyl)-4-(2-chloro-4-fluoro-phenyl)-2-(3-fluoro-pyridin-2-yl)-1,4-dihydro-pyrimidine-5-carboxylic acid methyl ester]"
667,6.56,"COC(=O)C1=C(CN2CC(F)(F)C[C@H]2C(=O)O)NC(c2nccs2)=N[C@H]1c1ccc(C#N)cc1Cl [Example 30, (R)-6-((S)-2-Carboxy-4,4-difluoro-pyrrolidin-1-ylmethyl)-4-(2-chloro-4-cyano-phenyl)-2-thiazol-2-yl-1,4-dihydro-pyrimidine-5-carboxylic acid methyl ester]"
–,8.79,"COC(=O)C1=C(CN2CC(F)(F)C[C@H]2C(=O)O)NC(c2cc(C)cs2)=N[C@H]1c1ccc(F)cc1Cl [Example 27, (R)-6-((S)-2-Carboxy-4,4-difluoro-pyrrolidin-1-ylmethyl)-4-(2-chloro-4-fluoro-phenyl)-2-(4-methyl-thiophen-2-yl)-1,4-dihydro-pyrimidine-5-carboxylic acid methyl ester]"
668,10.02,"CCOC(=O)C1=C(CN2CC(F)(F)C[C@H]2C(=O)O)NC(c2nccs2)=NC1c1ccc(F)cc1Cl (stereo partly drawn) [Example 26, 6-((S)-2-Carboxy-4,4-difluoro-pyrrolidin-1-ylmethyl)-4-(2-chloro-4-fluoro-phenyl)-2-thiazol-2-yl-1,4-dihydro-pyrimidine-5-carboxylic acid ethyl ester]"
409,8.45,"CCOC(=O)C1=C(CN2CC(F)(F)C[C@H]2C(=O)O)NC(c2nc(C(F)(F)F)cn2C)=N[C@H]1c1ccc(F)cc1Cl [Example 40, (R)-6-((S)-2-Carboxy-4,4-difluoro-pyrrolidin-1-ylmethyl)-4-(2-chloro-4-fluoro-phenyl)-2-(1-methyl-4-trifluoromethyl-1H-imidazol-2-yl)-1,4-dihydro-pyrimidine-5-carboxylic acid ethyl ester]"
> 659,3.38,"COC(=O)C1=C(CN2CC(F)(F)C[C@H]2C(=O)O)NC(c2nccs2)=N[C@H]1c1cc(F)c(F)cc1Cl [Example 18, (R)-6-((S)-2-Carboxy-4,4-difluoro-pyrrolidin-1-ylmethyl)-4-(2-chloro-4,5-difluoro-phenyl)-2-thiazol-2-yl-1,4-dihydro-pyrimidine-5-carboxylic acid methyl ester]"
–,7.51,"COC(=O)C1=C(CN2CC(F)(F)C[C@H]2C(=O)O)NC(c2nccs2)=NC1c1ccc(F)cc1Cl (stereo partly drawn) [Example 1, 6-((S)-2-Carboxy-4,4-difluoro-pyrrolidin-1-ylmethyl)-4-(2-chloro-4-fluoro-phenyl)-2-thiazol-2-yl-1,4-dihydro-pyrimidine-5-carboxylic acid methyl ester]"

# Further lines, the compound ahead of its results:
SMILES,solubility thermodynamic [1] [µg/mL],Human Hepatic Clearance [2] [mL/min/kg]
"COC(=O)C1=C(CN2CCOC[C@H]2C(=O)O)NC(c2nc(C(F)F)cs2)=N[C@H]1c1ccc(F)cc1Cl [Example 88, (3S)-4-[[(4R)-4-(2-Chloro-4-fluoro-phenyl)-2-[4-(difluoromethyl)thiazol-2-yl]-5-methoxycarbonyl-1,4-dihydropyrimidin-6-yl]methyl]morpholine-3-carboxylic acid]",> 665,6.46
"COC(=O)C1=C(CN2CC(F)(F)C[C@H]2C(=O)O)NC(c2nc(C)cn2C)=NC1c1ccc(F)cc1Cl (stereo partly drawn) [Example 20, 6-((S)-2-Carboxy-4,4-difluoro-pyrrolidin-1-ylmethyl)-4-(2-chloro-4-fluoro-phenyl)-2-(1,4-dimethyl-1H-imidazol-2-yl)-1,4-dihydro-pyrimidine-5-carboxylic acid methyl ester]",683,10.74
"COC(=O)C1=C(CN2CC(F)(F)C[C@H]2C(=O)O)NC(c2nccs2)=N[C@H]1c1ccccc1Br [Example 72, (R)-4-(2-Bromo-phenyl)-6-((S)-2-carboxy-4,4-difluoro-pyrrolidin-1-ylmethyl)-2-thiazol-2-yl-1,4-dihydro-pyrimidine-5-carboxylic acid methyl ester]",> 670,5.16
"CCOC(=O)C1=C(CN2CCOC[C@H]2C(=O)O)NC(c2nccs2)=N[C@H]1c1ccc(Cl)cc1 [Example 126, (3S)-4-[[(4S)-4-(4-Chlorophenyl)-5-ethoxycarbonyl-2-(1,3-thiazol-2-yl)-1,4-dihydropyrimidin-6-yl]methyl]morpholine-3 carboxylic acid]",–,0
"COC(=O)C1=C(CN2CC(F)(F)C[C@H]2C(=O)O)NC(c2nc(C)co2)=N[C@H]1c1ccc(F)cc1Cl [Example 15, (R)-6-((S)-2-Carboxy-4,4-difluoro-pyrrolidin-1-ylmethyl)-4-(2-chloro-4-fluoro-phenyl)-2-(4-methyl-oxazol-2-yl)-1,4-dihydro-pyrimidine-5-carboxylic acid methyl ester]",> 627,3.53
"COC(=O)C1=C(CN2CCOC[C@H]2C(=O)O)NC(c2cc(C)ccn2)=N[C@H]1c1ccc(F)cc1Cl [Example 9, (S)-4-[(R)-6-(2-Chloro-4-fluoro-phenyl)-5-methoxycarbonyl-2-(4-methyl-pyridin-2-yl)-3,6-dihydro-pyrimidin-4-ylmethyl]-morpholine-3-carboxylic acid]",> 645,10.07
"COC(=O)C1=C(CN2CCOC[C@H]2C(=O)O)NC(c2nccs2)=N[C@H]1c1cc(F)c(F)cc1Cl [Example 21, (S)-4-[(R)-6-(2-Chloro-4,5-difluoro-phenyl)-5-methoxycarbonyl-2-thiazol-2-yl-3,6-dihydro-pyrimidin-4-ylmethyl]-morpholine-3-carboxylic acid]",828,3.08
"CCOC(=O)C1=C(CN2CCOC[C@H]2C(=O)O)NC(c2cccc(C)n2)=N[C@H]1c1ccc(F)cc1Cl [Example 37, (S)-4-[(R)-6-(2-Chloro-4-fluoro-phenyl)-5-ethoxycarbonyl-2-(6-methyl-pyridin-2-yl)-3,6-dihydro-pyrimidin-4-ylmethyl]-morpholine-3-carboxylic acid]",> 593,7
"COC(=O)C1=C(CN2CCOC[C@H]2C(=O)O)NC(c2nccn2C)=NC1c1ccc(F)cc1Cl (stereo partly drawn) [Example 13, (S)-4-[6-(2-Chloro-4-fluoro-phenyl)-5-methoxycarbonyl-2-(1-methyl-1H-imidazol-2-yl)-3,6-dihydro-pyrimidin-4-ylmethyl]-morpholine-3-carboxylic acid]",594,2.33
"CC(C)(C)OC(=O)C1=C(CN2CCOC[C@H]2C(=O)O)NC(c2nccs2)=N[C@H]1c1ccc(F)cc1Cl [Example 105, (S)-4-[5-tert-Butoxycarbonyl-6-(2-chloro-4-fluoro-phenyl)-2-thiazol-2-yl-3,6-dihydro-pyrimidin-4-ylmethyl]-morpholine-3-carboxylic acid]",–,8.13
